In ChEMBL document CHEMBL4354844, “Discovery of Balovaptan, a Vasopressin 1a Receptor Antagonist for the Treatment of Autism Spectrum Disorder” (J Med Chem, 2020):
The source made the active and inactive calls. No cut-off for these calls is given here.

Legend:
[1] = target: 5-hydroxytryptamine receptor 2B (Homo sapiens) (UniProt P41595); test: Antagonist activity at recombinant human 5HT2B receptor expressed in CHOK1 cells assessed as inhibition of serotonin-induced inositol phosphate production measured after 30 mins by HTRF assay; assay type: functional, cell-based
Sequence of 5-hydroxytryptamine receptor 2B (Homo sapiens) (P41595 whole entry, the tested form may be a part): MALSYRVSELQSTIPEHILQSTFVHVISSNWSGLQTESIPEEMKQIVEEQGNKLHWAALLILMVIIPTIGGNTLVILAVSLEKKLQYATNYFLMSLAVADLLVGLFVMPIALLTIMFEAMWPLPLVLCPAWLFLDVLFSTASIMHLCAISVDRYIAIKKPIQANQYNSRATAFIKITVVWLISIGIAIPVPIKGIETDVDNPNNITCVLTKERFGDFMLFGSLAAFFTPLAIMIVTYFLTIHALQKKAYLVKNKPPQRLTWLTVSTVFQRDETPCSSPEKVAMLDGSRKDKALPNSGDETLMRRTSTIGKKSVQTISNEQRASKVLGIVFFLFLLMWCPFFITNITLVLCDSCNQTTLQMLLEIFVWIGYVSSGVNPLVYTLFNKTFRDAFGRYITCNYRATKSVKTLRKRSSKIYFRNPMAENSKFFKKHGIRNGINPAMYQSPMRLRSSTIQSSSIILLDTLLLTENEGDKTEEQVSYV

Rattus norvegicus [2] = test: Neuroprotective activity in stress hyperresponsive Fischer F344 rat assessed as increase in perfusion in substantia nigra at 30 mg/kg, iv administered as bolus dose via catheter by ASL-based MRI analysis; assay type: functional, organism-based
[3] = Protein binding in human plasma assessed as unbound fraction; assay type: ADME, cell-free
Homo sapiens = species: Homo sapiens; test: Selectivity ratio of Kb for antagonist activity at recombinant human 5HT2B receptor expressed in CHOK1 cells to Kb for antagonist activity at human Gq5s-coupled V1a receptor expressed in CHO cells; assay type: cell-based
[4] = Selectivity ratio of Kb for antagonist activity at human […] receptor to Kb for antagonist activity at human Gq5s-coupled V1a receptor expressed in CHO cells
[5] = target: MDR1 (ABCB1, P-glycoprotein) (Homo sapiens, UniProt P08183); test: Substrate activity at human MDR1 expressed in LLC-PK1 cells assessed as efflux ratio of permeability at 1 uM measured after 3.5 hrs by lucifer yellow based scintillation counting or HPLC method; assay type: ADME, cell-based
Sequence of MDR1 (ABCB1, P-glycoprotein) (P08183 whole entry): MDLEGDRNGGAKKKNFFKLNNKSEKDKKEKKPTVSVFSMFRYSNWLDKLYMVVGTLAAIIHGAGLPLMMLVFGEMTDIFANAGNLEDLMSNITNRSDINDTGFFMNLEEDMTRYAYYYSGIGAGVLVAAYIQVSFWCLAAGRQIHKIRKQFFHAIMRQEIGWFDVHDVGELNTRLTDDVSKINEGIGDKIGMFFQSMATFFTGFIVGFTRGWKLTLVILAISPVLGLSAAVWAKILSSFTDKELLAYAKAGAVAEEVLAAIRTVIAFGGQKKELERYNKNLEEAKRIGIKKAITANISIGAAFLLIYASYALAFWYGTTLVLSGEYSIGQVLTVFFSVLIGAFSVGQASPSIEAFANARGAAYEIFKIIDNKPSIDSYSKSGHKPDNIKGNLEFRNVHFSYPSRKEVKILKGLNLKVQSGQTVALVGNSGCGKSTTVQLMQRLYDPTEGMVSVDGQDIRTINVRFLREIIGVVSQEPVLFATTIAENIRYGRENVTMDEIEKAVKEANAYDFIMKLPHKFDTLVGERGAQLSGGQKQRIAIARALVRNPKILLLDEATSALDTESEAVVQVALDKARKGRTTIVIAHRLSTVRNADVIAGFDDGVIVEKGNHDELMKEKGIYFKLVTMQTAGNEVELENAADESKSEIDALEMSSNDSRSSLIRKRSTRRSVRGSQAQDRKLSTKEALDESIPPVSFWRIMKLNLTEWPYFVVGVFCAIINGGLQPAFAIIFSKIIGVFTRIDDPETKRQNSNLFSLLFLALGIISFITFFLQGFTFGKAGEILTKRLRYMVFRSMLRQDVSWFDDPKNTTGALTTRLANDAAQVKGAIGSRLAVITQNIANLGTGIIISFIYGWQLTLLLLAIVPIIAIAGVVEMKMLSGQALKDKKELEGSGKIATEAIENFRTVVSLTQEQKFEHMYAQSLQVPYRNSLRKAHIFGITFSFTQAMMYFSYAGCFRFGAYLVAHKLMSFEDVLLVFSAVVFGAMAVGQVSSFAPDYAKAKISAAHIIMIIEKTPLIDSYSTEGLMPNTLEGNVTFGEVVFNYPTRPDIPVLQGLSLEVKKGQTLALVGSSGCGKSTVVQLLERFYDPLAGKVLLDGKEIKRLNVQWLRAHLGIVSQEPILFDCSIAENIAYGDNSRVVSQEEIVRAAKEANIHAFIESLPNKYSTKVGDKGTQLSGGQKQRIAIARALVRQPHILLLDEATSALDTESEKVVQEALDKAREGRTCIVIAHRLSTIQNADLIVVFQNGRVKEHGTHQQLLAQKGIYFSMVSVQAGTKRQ

[6] = Volume of distribution in rat; assay type: ADME; settings: in vivo
Rattus norvegicus [7] = test: Neuroprotective activity in stress hyperresponsive Fischer F344 rat assessed as change in perfusion in primary motor cortex at 30 mg/kg, iv administered as bolus dose via catheter by ASL-based MRI analysis relative to control; assay type: functional
Rattus norvegicus [8] = test: Neuroprotective activity in stress hyperresponsive Fischer F344 rat assessed as change in perfusion in dorsal hippocampus at 30 mg/kg, iv administered as bolus dose via catheter by ASL-based MRI analysis; assay type: functional, organism-based
Rattus norvegicus [9] = test: Neuroprotective activity in stress hyperresponsive Fischer F344 rat assessed as change in perfusion in superior colliculi at 30 mg/kg, iv administered as bolus dose via catheter by ASL-based MRI analysis; assay type: functional, organism-based
Rattus norvegicus [10] = test: Neuroprotective activity in stress hyperresponsive Fischer F344 rat assessed as increase in perfusion in hypothalamus at 30 mg/kg, iv administered as bolus dose via catheter by ASL-based MRI analysis; assay type: functional, organism-based
[11] = Volume of distribution in dog; assay type: ADME, Canis lupus familiaris; settings: in vivo
Rattus norvegicus [12] = test: Neuroprotective activity in stress hyperresponsive Fischer F344 rat assessed as increase in perfusion in amygdala at 30 mg/kg, iv administered as bolus dose via catheter by ASL-based MRI analysis; assay type: functional, organism-based
Rattus norvegicus [13] = test: Neuroprotective activity in stress hyperresponsive Fischer F344 rat assessed as change in perfusion in medial prefrontal at 30 mg/kg, iv administered as bolus dose via catheter by ASL-based MRI analysis relative to control; assay type: functional
[14] = Oral bioavailability in rat; assay type: ADME, organism-based; settings: in vivo
[15] = target: Vasopressin V1a receptor (Homo sapiens) (UniProt P37288); test: Antagonist activity at human Gq5s-coupled V1a receptor expressed in CHO cells assessed as inhibition of vasopressin-induced calcium flux preincubated for 20 mins followed by vasopressin addition and measured for 5 mins by fluo-4-AM dye based FLIPR assay; assay type: functional, cell-based
Sequence of Vasopressin V1a receptor (Homo sapiens) (P37288 whole entry, looked up, the tested form may be a part): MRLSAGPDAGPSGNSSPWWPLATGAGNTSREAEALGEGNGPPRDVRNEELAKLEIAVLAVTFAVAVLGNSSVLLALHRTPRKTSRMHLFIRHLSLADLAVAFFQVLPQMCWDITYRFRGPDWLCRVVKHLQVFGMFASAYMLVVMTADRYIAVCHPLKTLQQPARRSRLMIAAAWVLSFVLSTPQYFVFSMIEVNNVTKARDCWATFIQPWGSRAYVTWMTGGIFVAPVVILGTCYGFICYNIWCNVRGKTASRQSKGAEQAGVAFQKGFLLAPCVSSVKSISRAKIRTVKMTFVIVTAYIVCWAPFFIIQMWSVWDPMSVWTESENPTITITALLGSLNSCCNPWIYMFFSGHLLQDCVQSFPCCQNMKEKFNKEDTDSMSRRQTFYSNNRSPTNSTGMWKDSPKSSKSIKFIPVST

Rattus norvegicus [16] = test: Neuroprotective activity in stress hyperresponsive Fischer F344 rat assessed as increase in perfusion in raphe nuclei at 30 mg/kg, iv administered as bolus dose via catheter by ASL-based MRI analysis; assay type: functional, organism-based
[17] = Volume of distribution in cynomolgus monkey; assay type: ADME, Macaca fascicularis; settings: in vivo
[18] = Oral bioavailability in cynomolgus monkey; assay type: ADME, organism-based, Macaca fascicularis; settings: in vivo
Rattus norvegicus [19] = test: Neuroprotective activity in stress hyperresponsive Fischer F344 rat assessed as change in perfusion in inferior colliculi at 30 mg/kg, iv administered as bolus dose via catheter by ASL-based MRI analysis; assay type: functional, organism-based
Rattus norvegicus [20] = test: In vivo receptor occupancy at V1a receptor in stress hyperresponsive Fischer F344 rat at 30 mg/kg, iv administered as bolus dose via catheter; assay type: functional
Rattus norvegicus [21] = test: Neuroprotective activity in iv dosed stress hyperresponsive Fischer F344 rat assessed as improvement in neural activity pattern administered as bolus dose via catheter by ASL-based MRI analysis; assay type: functional, organism-based
[22] = Selectivity ratio of Kb for antagonist activity at human V2 receptor to Kb for antagonist activity at human Gq5s-coupled V1a receptor expressed in CHO cells
Rattus norvegicus [23] = test: Neuroprotective activity in stress hyperresponsive Fischer F344 rat assessed as change in perfusion in caudate putamen at 30 mg/kg, iv administered as bolus dose via catheter by ASL-based MRI analysis; assay type: functional, organism-based
Rattus norvegicus [24] = test: Neuroprotective activity in stress hyperresponsive Fischer F344 rat assessed as change in perfusion in visual cortex at 30 mg/kg, iv administered as bolus dose via catheter by ASL-based MRI analysis relative to control; assay type: functional
Rattus norvegicus [25] = test: Neuroprotective activity in stress hyperresponsive Fischer F344 rat assessed as increase in perfusion in entorhinal piriform cortex at 30 mg/kg, iv administered as bolus dose via catheter by ASL-based MRI analysis; assay type: functional, organism-based
Rattus norvegicus [26] = test: Neuroprotective activity in stress hyperresponsive Fischer F344 rat assessed as increase in perfusion in ventral tegmental area at 30 mg/kg, iv administered as bolus dose via catheter by ASL-based MRI analysis; assay type: functional, organism-based

## CN1Cc2cc(Cl)ccc2-n2c(nnc2[C@H]2CC[C@H](Oc3ccccn3)CC2)C1 [BALOVAPTAN]
[1]
  Kb: 366 nM
Rattus norvegicus [2]
  Activity: Active
[3]
  fraction unbound: 0.13
Homo sapiens
  Selectivity ratio: 938
[4]
  Selectivity ratio: 2735
[5]
  efflux ratio at 3.5 h, 1 µM: < 2
[6]
  Vd: 0.5 to 1.3 L/kg
Rattus norvegicus [7]
  Activity: -20%
Rattus norvegicus [8]
  Activity: Active
Rattus norvegicus [9]
  Activity: Active
Rattus norvegicus [10]
  Activity: Active
[11]
  Vd: 0.5 to 1.3 L/kg
Rattus norvegicus [12]
  Activity: Active
Rattus norvegicus [13]
  Activity: -20%
[14]
  bioavailability: 40%
[15]
  Kb: 0.39 nM
Rattus norvegicus [16]
  Activity: Active
[17]
  Vd: 0.5 to 1.3 L/kg
[18]
  bioavailability: 130%
Rattus norvegicus [19]
  Activity: Active
Rattus norvegicus [20]
  Occ: >90%
Rattus norvegicus [21]
  Activity: Dose-dependent effect
[22]
  Selectivity ratio: 3888
Rattus norvegicus [23]
  Activity: Active
Rattus norvegicus [24]
  Activity: -20%
Rattus norvegicus [25]
  Activity: Active
Rattus norvegicus [26]
  Activity: Active
